Data from patent EP0182152B1, “Antitumor antibiotics (LL-E33288 Complex)” (AMERICAN CYANAMID COMPANY, priority 1984, dated 1986).

Legend:
Colon 26 tumor = experiment: Colon 26 Adenocarcinoma Test; type: in vivo, CD2F1 female mice
From the text: (§1) Certain in vivo testing systems and protocols have been developed by the National Cancer Institute for testing compounds to determine their suitability as anti-neoplastic agents. These have been reported in "Cancer Chemotherapy Reports", Part III, Vol. 3, No. 2 (1972), Geran, et al. These protocols have established standardized screening tests which are generally followed in the field of testing for antitumor agents. Of these systems, lymphocytic leukemia P388, melanotic melanoma B16, L1210 leukemia and colon 26 adenocarcinoma are particularly significant to the present invention. These neoplasms are utilized for testing as transplantable tumors in mice. Generally, significant anti-tumor activity, shown in these protocols by a percentage increase of mean survival times of the treated animals (T) over the control animals (C), is indicative of similar results in human leukemias and solid tumors.
The animals used were CD2F1 female mice weighing a minimum of 17 g and all within a 3 g weight range. There were 5 or 6 mice per test group with three groups of 5 or 6 animals used as untreated controls for each test. The tumor implant was by intraperitoneal (or subcutaneous) injection of 0.5 ml of a 2% Colon 26 tumor brei in Eagle's MEM medium containing antibiotics. LL-E33288 antibiotics were tested in the Colon 26 system as a complex (Bromo-complex) of all components. The test compounds were administered intraperitoneally on days 1, 5 and 9 (relative to tumor implant doses). The mice were weighed and deaths recorded on a regular basis for 30 days. The median survival times for treated (T)/control (C) animals were calculated. The positive control compound was Cisplatin. If T/C X 100 (%) is 130 or over, the tested compound is considered to have significant anti-tumor activity.
(§2) In the same manner, the following iodo-components were tested for antineoplastic activity.

[1] = test system: lymphocytic leukemia L1210; experiment: Lymphocytic Leukemia L1210 Test; type: in vivo, BDF1 mice; details: Table VI, i.p., control 8.3 days
From the text: as §1
The animals used were BDF1 mice, all of one sex, weighing a minimum of 17 g and all within a 3 g weight range. There were 6 mice in each test group and 18 in control groups. The tumor transplant was by intraperitoneal injection of 0.5 ml of lymphocytic leukemia L1210 at a concentration of 10^5 cells per mouse. LL-E33288 antibiotics were tested in the L1210 system both as the individual β1-Br component and as a complex of all components (Bromo-complex). The test compounds were administered on days 1, 5 and 9 or days 1 through 9 (relative to tumor inoculation) at various doses. The mice were weighed and survivors recorded on a regular basis for 30 days. The median survival time and the ratio of survival time for treated (T)/control (C) animals were calculated. The positive control compound was 1,4-dihydroxy-5,8-bis[[2-(2-hydroxyethylamino)ethyl]amino]anthraquinone dihydrochloride or Cisplatin given intraperitoneally at the indicated dose. If T/C X 100 (%) is 125 or over, the tested compound is considered to have significant anti-tumor activity.
as §2

[2] = test system: lymphocytic leukemia P388; experiment: Lymphocytic Leukemia P388 Test; type: in vivo, BDF1 mice; details: Table IV, i.p. days 1, 5 and 9
From the text: as §1
The animals used were BDF1 mice, all of one sex, weighing a minimum of 17 g and all within a 3 g weight range. There were 5 or 6 mice per test group. The tumor transplant was by intraperitoneal injection of 0.5 ml of dilute ascitic fluid containing 10^6 cells of lymphocytic leukemia P388. LL-E33288 antibiotics were tested in the P388 system both as the individual β1-Br and […] components and as a complex of all components (Bromo-complex). The test compounds were administered intrapertioneally at a volume of 0.5 ml in 0.2% Klucel in normal saline on days 1, 5 and 9 (relative to tumor inoculation) at the indicated doses. The mice were weighed and the survivors recorded on a regular basis for 30 days. The median survival time and the ratio of survival time for treated (T)/control (C) animals were calculated. The positive control compound was Cisplatin given as an intraperitioneal injection in 0.5 ml of 0.2% Klucel on days 1, 5 and 9 at the indicated doses.
If T/C X 100 (%) is 125 or over, the tested compound is considered to have significant anti-tumor activity.
as §2

melanotic melanoma B16 = experiment: Melanotic Melanoma B16 Test; type: in vivo, BDF1 mice; details: Table V, i.p. days 1 through 9, control 16 days
From the text: as §1
The animals used were BDF1 mice, all of the same sex, weighing a minimum of 17 g and all within a 3 g weight range. There are normally 6 animals per test group. A 1 g portion of melanotic melanoma β16 tumor was homogenized in 10 ml of cold balanced salt solution and a 0.5 ml aliquot of the homogenate was implanted intraperitoneally into each of the test mice. LL-E33288 antibiotics were tested in the β16 system both as the individual β1-Br and γ1-Br components and as a complex of all components (Bromo-complex). The test compounds were administered intraperitioneally on days 1 through 9 (relative to tumor inoculation) at various doses. The mice were weighed and survivors recorded on a regular basis for 60 days. The median survival time and the ratio of survival time for treated (T)/control (C) animals were calculated. The positive control compounds were Cisplatin or Adriamycin. The results of this test appear in Table V. If T/C X 100 (%) is 125 or over, the tested compound is considered to have significant anti-tumor activity.
as §2

[3] = Table VII, i.p. days 1, 5 and 9, dose 0.25 mg/kg, control 18.6 days
[4] = Table VII, i.p. days 1, 5 and 9, dose 0.5 mg/kg, control 18.6 days
[5] = Table VII, i.p. days 1, 5 and 9, dose 1 mg/kg, control 18.6 days
[6] = Table XII, dose 0.5 mg/kg, control 18.5 days
[7] = Table XII, dose 1 mg/kg, control 18.5 days
[8] = Table XII, dose 2 mg/kg, control 18.5 days
[9] = dose 0.06 mg/kg, control 10.6 days
[10] = dose 0.06 mg/kg, control 12.4 days
[11] = dose 0.25 mg/kg, control 10.6 days
[12] = dose 0.4 mg/kg, control 12.4 days
[13] = dose 1.0 mg/kg, control 10.6 days
[14] = dose 1.0 mg/kg, control 12.4 days

N.N.[Cl][Pt][Cl] [Cisplatin, reference compound]
Median Survival (Colon 26 tumor; [3]): 37.5 days
T/C x 100 (Colon 26 tumor; [3]): 202%
Median Survival (Colon 26 tumor; [4]): 38.5 days
T/C x 100 (Colon 26 tumor; [4]): 207%
Median Survival (Colon 26 tumor; [5]): 29 days
T/C x 100 (Colon 26 tumor; [5]): 156%
Median Survival (Colon 26 tumor; [6]): 23.5 days
T/C x 100 (Colon 26 tumor; [6]): 127%
Median Survival (Colon 26 tumor; [7]): 27.5 days
T/C x 100 (Colon 26 tumor; [7]): 149%
Median Survival (Colon 26 tumor; [8]): 15.5 days
T/C x 100 (Colon 26 tumor; [8]): 84%
Median Survival ([1]; dose 1.25 mg/kg): 11 days
T/C x 100 ([1]; dose 1.25 mg/kg): 133%
Median Survival ([1]; dose 2.5 mg/kg): 12 days
T/C x 100 ([1]; dose 2.5 mg/kg): 145%
Median Survival ([1]; dose 5 mg/kg): 7.5 days
T/C x 100 ([1]; dose 5 mg/kg): 90%
Median Survival [2, 9]: 14.5 days
T/C x 100 [2, 9]: 137%
Median Survival [2, 10]: 15 days
T/C x 100 [2, 10]: 121%
Median Survival [2, 11]: 15 days
T/C x 100 [2, 11]: 142%
Median Survival [2, 12]: 19 days
T/C x 100 [2, 12]: 153%
Median Survival [2, 13]: 21.5 days
T/C x 100 [2, 13]: 203%
Median Survival [2, 14]: 25.5 days
T/C x 100 [2, 14]: 206%
Median Survival (melanotic melanoma B16; dose 0.05 mg/kg): 21.5 days
T/C x 100 (melanotic melanoma B16; dose 0.05 mg/kg): 134%
Median Survival (melanotic melanoma B16; dose 0.1 mg/kg): 23 days
T/C x 100 (melanotic melanoma B16; dose 0.1 mg/kg): 144%
Median Survival (melanotic melanoma B16; dose 0.2 mg/kg): 25 days
T/C x 100 (melanotic melanoma B16; dose 0.2 mg/kg): 156%
Median Survival (melanotic melanoma B16; dose 0.4 mg/kg): 25 days
T/C x 100 (melanotic melanoma B16; dose 0.4 mg/kg): 156%
